Reference: ChEMBL document CHEMBL1131783, “Prodrugs of CL316243: a selective beta3-adrenergic receptor agonist for treating obesity and diabetes” (Bioorg Med Chem Lett, 1999)
One block for each compound: values may come before it.

Target: Beta-3 adrenergic receptor (Rattus norvegicus) (UniProt P26255)
Test: Beta-3-adrenergic activity measured by percent response against free fatty acid (FFA) in rat plasma at a dosage of 0.1 mg/kg
Format: functional, organism-based
Set-up: dose 0.1 mg/kg

Chain of Beta-3 adrenergic receptor (Rattus norvegicus) (P26255 whole entry): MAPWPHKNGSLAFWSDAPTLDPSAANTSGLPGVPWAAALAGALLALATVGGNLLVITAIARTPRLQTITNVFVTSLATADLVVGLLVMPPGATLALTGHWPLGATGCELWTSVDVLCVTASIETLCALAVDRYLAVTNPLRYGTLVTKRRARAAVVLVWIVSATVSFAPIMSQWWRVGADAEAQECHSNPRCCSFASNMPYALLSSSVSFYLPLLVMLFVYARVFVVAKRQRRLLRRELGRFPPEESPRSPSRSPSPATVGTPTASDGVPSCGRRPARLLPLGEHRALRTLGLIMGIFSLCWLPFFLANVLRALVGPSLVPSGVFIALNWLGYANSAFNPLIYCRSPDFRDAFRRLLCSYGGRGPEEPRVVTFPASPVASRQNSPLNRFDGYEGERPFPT

SMILES: C[C@H](Cc1ccc2c(c1)OC(C(=O)OCCOc1ccc(Cl)cc1)(C(=O)OCCOc1ccc(Cl)cc1)O2)NC[C@H](O)c1cccc(Cl)c1
Response: 26%

SMILES: C[C@H](Cc1ccc2c(c1)OC(C(=O)OCC(C)(C)Cc1ccccc1)(C(=O)OCC(C)(C)Cc1ccccc1)O2)NC[C@H](O)c1cccc(Cl)c1
Response: 25%

SMILES: C[C@H](Cc1ccc2c(c1)OC(C(=O)OCCCCCc1ccccc1)(C(=O)OCCCCCc1ccccc1)O2)NC[C@H](O)c1cccc(Cl)c1
Response: 93%

SMILES: CCCCCCC(=O)OCOC(=O)C1(C(=O)OCOC(=O)CCCCCC)Oc2ccc(C[C@@H](C)NC[C@H](O)c3cccc(Cl)c3)cc2O1
Response: 23%

SMILES: C[C@H](Cc1ccc2c(c1)OC(C(=O)OCC1CCCCO1)(C(=O)OCC1CCCCO1)O2)NC[C@H](O)c1cccc(Cl)c1 (stereo not given in full)
Response: 11%

SMILES: C[C@H](Cc1ccc2c(c1)OC(C(=O)O)(C(=O)OCC(C)(C)C)O2)NC[C@H](O)c1cccc(Cl)c1 (stereo not given in full)
Response: 81%

SMILES: COC(=O)C(C)OC(=O)C1(C(=O)OC(C)C(=O)OC)Oc2ccc(C[C@@H](C)NC[C@H](O)c3cccc(Cl)c3)cc2O1 (stereo not given in full)
Response: 42%

SMILES: C[C@H](Cc1ccc2c(c1)OC(C(=O)OCOC(=O)c1ccccc1)(C(=O)OCOC(=O)c1ccccc1)O2)NC[C@H](O)c1cccc(Cl)c1
Response: 31%

SMILES: C[C@H](Cc1ccc2c(c1)OC(C(=O)OCCCOCc1ccccc1)(C(=O)OCCCOCc1ccccc1)O2)NC[C@H](O)c1cccc(Cl)c1
Response: 83%

SMILES: C[C@H](Cc1ccc2c(c1)OC(C(=O)O)(C(=O)OCCC1CC1)O2)NC[C@H](O)c1cccc(Cl)c1 (stereo not given in full)
Response: 19%

SMILES: CC(C)OC(=O)COC(=O)C1(C(=O)OCC(=O)OC(C)C)Oc2ccc(C[C@@H](C)NC[C@H](O)c3cccc(Cl)c3)cc2O1
Response: 78%

SMILES: C[C@H](Cc1ccc2c(c1)OC(C(=O)OCC(=O)c1ccccc1)(C(=O)OCC(=O)c1ccccc1)O2)NC[C@H](O)c1cccc(Cl)c1
Response: 7%

SMILES: C[C@H](Cc1ccc2c(c1)OC(C(=O)O)(C(=O)OCC1CC1)O2)NC[C@H](O)c1cccc(Cl)c1 (stereo not given in full)
Response: 37%

SMILES: CCC(CC)OC(=O)C1(C(=O)O)Oc2ccc(C[C@@H](C)NC[C@H](O)c3cccc(Cl)c3)cc2O1 (stereo not given in full)
Response: 52%

SMILES: C[C@H](Cc1ccc2c(c1)OC(C(=O)OCCc1cccc(Br)c1)(C(=O)OCCc1cccc(Br)c1)O2)NC[C@H](O)c1cccc(Cl)c1
Response: 71%

SMILES: CCC(=O)OC(C)OC(=O)C1(C(=O)OC(C)OC(=O)CC)Oc2ccc(C[C@@H](C)NC[C@H](O)c3cccc(Cl)c3)cc2O1 (stereo not given in full)
Response: 2%

SMILES: CC(OC(=O)C1(C(=O)OC(C)c2ccccc2)Oc2ccc(C[C@@H](C)NC[C@H](O)c3cccc(Cl)c3)cc2O1)c1ccccc1 (stereo not given in full)
Response: 78%

SMILES: CC(C)OC(=O)C1(C(=O)O)Oc2ccc(C[C@@H](C)NC[C@H](O)c3cccc(Cl)c3)cc2O1 (stereo not given in full)
Response: 45%

SMILES: CCOC(=O)C(C)OC(=O)C1(C(=O)OC(C)C(=O)OCC)Oc2ccc(C[C@@H](C)NC[C@H](O)c3cccc(Cl)c3)cc2O1 (stereo not given in full)
Response: 9%

SMILES: C[C@H](Cc1ccc2c(c1)OC(C(=O)O)(C(=O)OCC1CCCCC1)O2)NC[C@H](O)c1cccc(Cl)c1 (stereo not given in full)
Response: 47%

SMILES: C[C@H](Cc1ccc2c(c1)OC(C(=O)OCCOc1ccccc1)(C(=O)OCCOc1ccccc1)O2)NC[C@H](O)c1cccc(Cl)c1
Response: 2%

SMILES: CC(OC(=O)c1ccccc1)OC(=O)C1(C(=O)OC(C)OC(=O)c2ccccc2)Oc2ccc(C[C@@H](C)NC[C@H](O)c3cccc(Cl)c3)cc2O1 (stereo not given in full)
Response: 30%

SMILES: C[C@H](Cc1ccc2c(c1)OC(C(=O)OCC(=O)Oc1ccccc1)(C(=O)OCC(=O)Oc1ccccc1)O2)NC[C@H](O)c1cccc(Cl)c1
Response: 37%

SMILES: C[C@H](Cc1ccc2c(c1)OC(C(=O)OCCOCc1ccccc1)(C(=O)OCCOCc1ccccc1)O2)NC[C@H](O)c1cccc(Cl)c1
Response: 120%

SMILES: COc1ccc(COC(=O)C2(C(=O)OCc3ccc(OC)cc3)Oc3ccc(C[C@@H](C)NC[C@H](O)c4cccc(Cl)c4)cc3O2)cc1
Response: 8%

SMILES: C[C@H](Cc1ccc2c(c1)OC(C(=O)O)(C(=O)OCCOCc1ccccc1)O2)NC[C@H](O)c1cccc(Cl)c1 (stereo not given in full)
Response: 109%

SMILES: C[C@H](Cc1ccc2c(c1)OC(C(=O)OCc1ccccc1)(C(=O)OCc1ccccc1)O2)NC[C@H](O)c1cccc(Cl)c1
Response: 21%

SMILES: C[C@H](Cc1ccc2c(c1)OC(C(=O)OCC1CCOC1)(C(=O)OCC1CCOC1)O2)NC[C@H](O)c1cccc(Cl)c1 (stereo not given in full)
Response: 68%

SMILES: C[C@H](Cc1ccc2c(c1)OC(C(=O)OC/C=C/c1ccccc1)(C(=O)OC/C=C/c1ccccc1)O2)NC[C@H](O)c1cccc(Cl)c1
Response: 58%

SMILES: CC(OC(=O)OC1CCCCC1)OC(=O)C1(C(=O)OC(C)OC(=O)OC2CCCCC2)Oc2ccc(C[C@@H](C)NC[C@H](O)c3cccc(Cl)c3)cc2O1 (stereo not given in full)
Response: 17%

SMILES: C[C@H](Cc1ccc2c(c1)OC(C(=O)OCCOc1cccc(Cl)c1)(C(=O)OCCOc1cccc(Cl)c1)O2)NC[C@H](O)c1cccc(Cl)c1
Response: 88%

Results, then the compound that gave them:

Response: 86%
SMILES: CCC(CC)COC(=O)C1(C(=O)OCC(CC)CC)Oc2ccc(C[C@@H](C)NC[C@H](O)c3cccc(Cl)c3)cc2O1

Response: 56%
SMILES: CCC(CC)COC(=O)C1(C(=O)O)Oc2ccc(C[C@@H](C)NC[C@H](O)c3cccc(Cl)c3)cc2O1 (stereo not given in full)

Response: 30%
SMILES: CCCOC(=O)COC(=O)C1(C(=O)OCC(=O)OCCC)Oc2ccc(C[C@@H](C)NC[C@H](O)c3cccc(Cl)c3)cc2O1

Response: 22%
SMILES: CCOC(=O)COC(=O)C1(C(=O)OCC(=O)OCC)Oc2ccc(C[C@@H](C)NC[C@H](O)c3cccc(Cl)c3)cc2O1

Response: 10%
SMILES: CCC(=O)OCOC(=O)C1(C(=O)OCOC(=O)CC)Oc2ccc(C[C@@H](C)NC[C@H](O)c3cccc(Cl)c3)cc2O1

Response: 14%
SMILES: C[C@H](Cc1ccc2c(c1)OC(C(=O)OCOC(=O)C(C)(C)C)(C(=O)OCOC(=O)C(C)(C)C)O2)NC[C@H](O)c1cccc(Cl)c1

Response: 66%
SMILES: CCCCCCOC(=O)C1(C(=O)O)Oc2ccc(C[C@@H](C)NC[C@H](O)c3cccc(Cl)c3)cc2O1 (stereo not given in full)

Response: 24%
SMILES: C[C@H](Cc1ccc2c(c1)OC(C(=O)OCC1CCCO1)(C(=O)OCC1CCCO1)O2)NC[C@H](O)c1cccc(Cl)c1 (stereo not given in full)

Response: 26%
SMILES: CC(C)C(=O)OCOC(=O)C1(C(=O)OCOC(=O)C(C)C)Oc2ccc(C[C@@H](C)NC[C@H](O)c3cccc(Cl)c3)cc2O1

Response: 83%
SMILES: CCCCOCCOC(=O)C1(C(=O)O)Oc2ccc(C[C@@H](C)NC[C@H](O)c3cccc(Cl)c3)cc2O1 (stereo not given in full)

Response: 51%
SMILES: C[C@H](Cc1ccc2c(c1)OC(C(=O)O)(C(=O)OCCOc1ccccc1)O2)NC[C@H](O)c1cccc(Cl)c1 (stereo not given in full)

Response: 77%
SMILES: C[C@H](Cc1ccc2c(c1)OC(C(=O)OCCC1CC1)(C(=O)OCCC1CC1)O2)NC[C@H](O)c1cccc(Cl)c1

Response: 83%
SMILES: CCCCOC(=O)C1(C(=O)OCCCC)Oc2ccc(C[C@@H](C)NC[C@H](O)c3cccc(Cl)c3)cc2O1

Response: 78%
SMILES: C[C@H](Cc1ccc2c(c1)OC(C(=O)OCC(C)(C)CO)(C(=O)OCC(C)(C)CO)O2)NC[C@H](O)c1cccc(Cl)c1

Response: 60%
SMILES: C[C@H](Cc1ccc2c(c1)OC(C(=O)OCC[Si](C)(C)C)(C(=O)OCC[Si](C)(C)C)O2)NC[C@H](O)c1cccc(Cl)c1

Response: 20%
SMILES: C[C@H](Cc1ccc2c(c1)OC(C(=O)O)(C(=O)OCCOC(C)(C)C)O2)NC[C@H](O)c1cccc(Cl)c1 (stereo not given in full)

Response: 71%
SMILES: COCCOCCOC(=O)C1(C(=O)OCCOCCOC)Oc2ccc(C[C@@H](C)NC[C@H](O)c3cccc(Cl)c3)cc2O1

Response: 58%
SMILES: CCCCOCCOC(=O)C1(C(=O)OCCOCCCC)Oc2ccc(C[C@@H](C)NC[C@H](O)c3cccc(Cl)c3)cc2O1

Response: 73%
SMILES: C[C@H](Cc1ccc2c(c1)OC(C(=O)OC[Si](C)(C)C)(C(=O)OC[Si](C)(C)C)O2)NC[C@H](O)c1cccc(Cl)c1
